Where “and” joins values, the source holds several entries; their conditions need not be identical. Equal values may be shown once. Read-outs that look alike come from different tables or passages of the source.
Tests used:
chicks = tested on: chicks
Description: Hatching eggs are obtained from a breeder farm and the eggs are subjected to standard egg cleaning and preparation procedures. Hatched chicks are collected and prepared according to standard procedures (separation of eggshells and unhatched eggs, counted, etc.). Chicks are graded according to established methods. See van de Ven et al., “Significance of chick quality score in broiler production,” Animal 6(10):1677-1683; Boerjan, “Programs for single stage incubation and chick quality,” Avian Poultry Biology Reviews 13:237-238 (2002); Tona et al, “Effects of egg storage time on spread of hatch, chick quality and chick juvenile growth,” Poultry Science 82:736-741 (2003).
As indicated, certain studies were performed at Western Hatchery in Abbotsford, British Columbia, Canada (“Western”), under the supervision of the inventors and assignee. Approximately 4 million eggs per month are processed through the hatchery.
The egg room is contiguous to the loading and receiving area of the facility and is exposed to the outside during deliveries for up to 2 to 3 hours daily. […] In addition to the incoming eggs, the egg room includes excess shipping boxes and pallets.
In June 2016, the egg room and facilities are modified to add a vestibule to the loading dock with plastic curtains and upgrading the HVAC system to provide a third supply duct. […] The use of the egg room is further modified to remove unnecessary equipment including, but not limited to, pallets, cardboard boxes, and crates.
Setter incubators are set to industry standard conditions: temperature between 37° C. and 38° C. and relative humidity between 40% and 70%.
FIG. 6 presents the percent hatching of first quality chicks.

Aspergillus fumigatus = settings: hatchery after DHP treatment
[1] = tested on: C. difficile (endospores) ATCC 43598
[2] = tested on: bacteria on commercial hatching eggs; settings: DHP about 0.1 ppm, P=0.05
Description: As a control, sixty (60) commercial eggs are placed into a biosafety cabinet with the window closed. […] Sixty (60) commercial hatching eggs (test eggs) are placed in the room and both the control and test eggs are sampled, 10 eggs each, four times over the course of five (5) days at 0 hours, 24 hours, 72 hours, and 120 hours.
For sampling, individual eggs are placed in Whirl-Pak bags containing 10 milliliters (ml) of tryptic soy broth and manually rubbed in bag for 1 minute each. The washed eggs are discarded. One (1) ml from each sample is transferred to a deep well plate in triplicate and 10 fold serial dilutions performed with tryptic soy broth to 10−^11 dilution. The deep well plates are incubated for 24 hours at 37° C. After incubation, 5 microliters (5 μl) of each well is stamped onto a 96-well plate containing either tryptic soy agar (TSA) or MacConkey (Macx) agar. TSA agar is a non-selective, general purpose media. Macx agar is a selective, differential culture media for Gram-negative enteric bacilli. The agar plates are incubated 24 hours at 37° C. and then scored for bacterial growth.
Bacterial growth is scored using a Most Probable Number (MPN) calculation.

broilers = tested on: broilers
Excerpt: The chicks hatched according to the methods of Examples 2 and 3 are shipped to a broiler facility and raised to maturity. No additional changes to grow-out methods are made. A total of about 4 million eggs are set per month and the saleable chicks are sent to the grow-out facility. […] The wholesale price of a broiler is currently estimated at $0.85 per pound. […] See the nationalchickencouncil.org available on the web.

bacteria = settings: end of test period (30 days), three locations
Description: In addition, bacterial contamination in the egg room is assessed by placing blood agar plates at three locations in the room (East, North, and West) at 0, 7, and 30 days, and bacterial growth is assessed after 24 hours.

E. coli K12 = settings: for Log10 reduction / Log10 reduction vs. Control: DHP (+)
[3] = tested on: S. aureus ATCC 33592 (MRSA)
Description: 24 and 48 hour test cultures of S. aureus, as well as all A. brasiliensis and C. difficile are prepared with 0.1% Triton X-100. A 6 hour test culture of S. aureus is prepared with 5.0% Petal Bovine Serum and no Triton. Carriers (slides) are inoculated, in duplicate per test microorganism per condition, at a target concentration of 1×10^6 CPU/Carrier. Inoculated carriers are allowed to dry at ambient temperatures, and are then placed in respective conditions to endure contact times. Carriers for S. aureus endured contact times of 6, 24, and 48 hours. Carriers for A. brasiliensis endured contact times of 12, 24, and 48 hours. […] After respective contact times, carriers are harvested in 10.0 mL of D/E Broth, vortex mixed, diluted, and plated on the appropriate growth media for each microorganism. Environmental conditions are monitored using the Drager Rohrchen, and Drager Polytron methods described in Example 1. (Note: The limit of detection for this assay is 5.0 CPU. Samples with no detectable colonies are listed as <5.00E+OO in the table).

[4] = second contact time (48 hours), Hood (Treated)
[5] = second contact time (48 hours), Room (Treated)

## OO [DHP, dry hydrogen peroxide]
chicks; after installation of DHP to setter incubator environment, about 0.5 ppm in room
  percent hatching of first quality chicks: 83%
chicks; average of months
  After Modification Cull Rate(%), Average: 1.65%
  After Modification First Quality Chick (% Hatched), Average: 80.82%
chicks; egg room DHP
  additional birds available for shipping to the grow-out facility: about 4,000 birds
  cull rate lower than before DHP modification: at least 1%
Aspergillus fumigatus
  Post: 1
[1]; 24 Hours, Hood (Treated)
  Average CFU/Carrier: 2.75E+06 CFU/Carrier
  Log Reduction compared to Control: None
  Percent Reduction compared to Control: None
[1]; 24 Hours, Room (Treated)
  Average CFU/Carrier: 1.53E+06 CFU/Carrier
  Log Reduction compared to Control: 0.07 Log
  Percent Reduction compared to Control: 13.96%
[1]; 72 Hours, Hood (Treated)
  Average CFU/Carrier: 1.80E+06 CFU/Carrier
  Log Reduction compared to Control: 0.31 Log
  Percent Reduction compared to Control: 51.02%
[1]; 72 Hours, Room (Treated)
  Average CFU/Carrier: 3.35E+06 CFU/Carrier
  Log Reduction compared to Control: 0.04 Log
  Percent Reduction compared to Control: 8.84%
[1]; [4]
  Average CFU/Carrier: 3.10E+06 CFU/Carrier
  Log Reduction compared to Control: 0.24 Log
  Percent Reduction compared to Control: 42.06%
[1]; [5]
  Average CFU/Carrier: 3.53E+06 CFU/Carrier
  Log Reduction compared to Control: 0.18 Log
  Percent Reduction compared to Control: 34.11%
[2]; after 72 hours
  number of bacteria growing on TSA: significantly reduced
[2]; after 120 hours
  number of bacteria growing on TSA: significantly reduced
broilers; After DHP, grow-out facility
  Mortality Rate: 2.2%
broilers; After DHP, per 4,000,000 eggs set
  Net increase(# Chicks): 62,000
broilers; After DHP, per month
  Broilers raised: 3,161,678
broilers; chicks from DHP treated eggs
  reduction of mortality at the grow-out facility: about 7.8%
bacteria
  number of bacterial colonies on the blood agar plates, total: about 30
E. coli K12; 1 hour
  Log10 reduction: >4.78 Log10
  Log10 reduction vs. Control: 2.82 Log10
E. coli K12; 2 hours
  Log10 reduction: >4.79 Log10
  Log10 reduction vs. Control: 1.71 Log10
E. coli K12; within one hour
  elimination of aerosolized bacteria from the DHP treated space: essentially eliminated
[3]; 6 Hours, Hood (Treated)
  % Reduction compared: 95.150%
  Log Reduction compared to: 1.31 Log
[3]; 6 Hours, Room (Treated)
  % Reduction compared: 83.053%
  Log Reduction compared to: 0.77 Log
[3]; 24 Hours, Hood (Treated)
  % Reduction compared: >66.667%
  Log Reduction compared to: >0.48 Log
  Replicate CFU/Carrier: <5.00E+00 CFU/Carrier
[3]; 24 Hours, Room (Treated)
  % Reduction compared: >88.889%
  Average CFU/Carrier: <5.00E+00 CFU/Carrier
  Log Reduction compared to: >0.95 Log
  Replicate CFU/Carrier: 5.00E+00 CFU/Carrier and <5.00E+00 CFU/Carrier
[3]; 48 Hours, Hood (Treated)
  % Reduction compared: >78.947%
  Log Reduction compared to: >0.68 Log
  Replicate CFU/Carrier: <5.00E+00 CFU/Carrier
[3]; 48 Hours, Room (Treated)
  % Reduction compared: >89.474%
  Average CFU/Carrier: <5.00E+00 CFU/Carrier
  Log Reduction compared to: >0.98 Log
  Replicate CFU/Carrier: <5.00E+00 CFU/Carrier

Source: patent publication US12102063B2 (SYNEXIS LLC, priority 2017, dated 2024)
